Assay results as given in patent US20230203044A1, “PYRAZOLO[1,5-D][1,2,4]TRIAZINE-5(4H)-ACETAMIDES AS INHIBITORS OF THE NLRP3 INFLAMMASOME” (JANSSEN PHARMACEUTICA NV, priority 2020, published 2023).
pEC50, pIC50: −log10 of the molar value. Read-outs that look alike come from different tables or passages of the source.

Columns and labels:
NLRP3 inflammasome = test: PBMC assay: IL-1β in LPS-stimulated human PBMCs (MSD); assay type: cell-based; conditions: read-out: IL1β IC50
Description: The activity of a compound according to the present invention can be assessed by in vitro methods.
Peripheral venous blood was collected from healthy individuals and human peripheral blood mononuclear cells (PBMCs) were isolated from blood by Ficoll-Histopaque (Sigma-Aldrich, A0561) density gradient centrifugation. After isolation, PBMCs were stored in liquid nitrogen for later use. Upon thawing, PBMC cell viability was determined in growth medium (RPMI media supplemented with 10% fetal bovine serum, 1% Pen-Strep and 1% L-glutamine). […] PBMCs were added at a density of 7.5×10^4 cells per well and incubated for 30 min in a 5% CO2 incubator at 37° C. LPS stimulation was performed by addition of 100 ng/ml LPS (final concentration, Invivogen, tlrl-smlps) for 6 hrs followed by collection of cellular supernatant and the analysis of IL-1β (μM) and TNF cytokines levels (μM) via MSD technology according to manufacturers' guidelines (MSD, K151A0H).

TNF = test: PBMC assay: TNF cytokine levels in LPS-stimulated human PBMCs (MSD); assay type: cell-based; conditions: 100 ng/ml LPS for 6 hrs, TNF in supernatant via MSD
Description: Peripheral venous blood was collected from healthy individuals and human peripheral blood mononuclear cells (PBMCs) were isolated from blood by Ficoll-Histopaque (Sigma-Aldrich, A0561) density gradient centrifugation. After isolation, PBMCs were stored in liquid nitrogen for later use. Upon thawing, PBMC cell viability was determined in growth medium (RPMI media supplemented with 10% fetal bovine serum, 1% Pen-Strep and 1% L-glutamine). Compounds were spotted in a 1:3 serial dilution in DMSO and diluted to the final concentration in 30 μl medium in 96 well plates (Falcon, 353072). PBMCs were added at a density of 7.5×10^4 cells per well and incubated for 30 min in a 5% CO2 incubator at 37° C. LPS stimulation was performed by addition of 100 ng/ml LPS (final concentration, Invivogen, tlrl-smlps) for 6 hrs followed by collection of cellular supernatant and the analysis of IL-1β (μM) and TNF cytokines levels (μM) via MSD technology according to manufacturers' guidelines (MSD, K151A0H).
The IC50 values (for IL-1β) and EC50 values (TNF) were obtained on compounds of the invention/examples, and are depicted in the following table: […]

[1] = human PBMCs, 100 ng/ml LPS for 6 hrs, IL-1β in supernatant via MSD

Compound | pIC50 (NLRP3 inflammasome; [1]) | pEC50 (TNF) | pIC50 (NLRP3 inflammasome; Homo sapiens, 6 h)
C[C@]1(O)C[C@@H](NC(=O)Cn2nc(CC3CCOC3)n3nc(C4CC4)cc3c2=O)C1 (stereo partly drawn) [Final Cpd 197] | < 5.00 | < 5.00 | 
CCc1nn(CC(=O)Nc2ccncn2)c(=O)c2cc(C3CC3)nn12 [Final Cpd 10, 2-(2-cyclopropyl-7-ethyl-4-oxo-pyrazolo[1,5-d][1,2,4]triazin-5-yl)-N-pyrimidin-4-yl-acetamide] | 6.19 | < 5.00 | 
Cc1nn(CC(=O)NC2(C)CCC2)c(=O)c2cc(C3CC3)nn12 [Final Cpd 62] | 5.07 | < 5.00 | 
CC(C)Cc1nn(CC(=O)Nc2ccc3nncn3c2)c(=O)c2cc(C3CC3)nn12 [Final Cpd 69] | ~5.61 | < 5.00 | 
CC(C)c1nn(CC(=O)Nc2ccc3nnnn3n2)c(=O)c2cc(C3CC3)nn12 [Final Cpd 169] | 6.80 | < 5.00 | 
CCc1nn(CC(=O)NC2CCCC2)c(=O)c2ccnn12 [Final Cpd 78] | < 5.00 | < 5.00 | 
CC(C)c1nn(CC(=O)Nc2ccc3ncnn3c2)c(=O)c2cc(C3CC3)nn12 [Final Cpd 82] | 6.55 | < 5.00 | 
CC(C)c1nn(CC(=O)N[C@H]2CCC(=O)N(CC3CC3)C2)c(=O)c2cc(C3CC3)nn12 [Final Cpd 27] | 6.00 | < 5.00 | 
CC(C)c1nn(CC(=O)Nc2ccc3cn[nH]c3c2)c(=O)c2cc(C3CC3)nn12 [Final Cpd 126] | 7.15 | < 5.00 | 
CC(C)c1nn(CC(=O)Nc2cc(Br)c3nncn3c2)c(=O)c2cc(C3CC3)nn12 [Final Cpd 95] | 6.43 | < 5.00 | 
CCc1cc2c(=O)n(CC(=O)Nc3ccnnc3)nc(C(C)C)n2n1 [Final Cpd 141] | 6.38 | < 5.00 | 
CC(C)c1nn(CC(=O)NC2CCOCC2)c(=O)c2cc(C3CC3)nn12 [Final Cpd 36] | 6.01 | < 5.00 | 
CC(C)c1nn(CC(=O)Nc2ccc3nncn3c2)c(=O)c2cc(C(O)C(F)(F)F)nn12 (stereo not drawn) [Final Cpd 157] | < 5.00 | < 5.00 | 
CC(C)c1nn(CC(=O)Nc2ccn3ccnc3c2)c(=O)c2cc(C3CC3)nn12 [Final Cpd 90] | 6.41 | < 5.00 | 
CC(C)c1nn(CC(=O)Nc2ccnc(N(C)C)c2)c(=O)c2cc(C3CC3)nn12 [Final Cpd 123] | 5.98 | < 5.00 | 
CC(C)c1cc2c(=O)n(CC(=O)Nc3ccc4nncn4c3)nc(N(C)C)n2n1 [Final Cpd 148] | 6.49 | < 5.00 | 
CC(C)c1nn(CC(=O)Nc2ccc3nncn3c2)c(=O)c2c(N)c(C3CCC3)nn12 [Final Cpd 182] | 7.00 | < 5.00 | 
Cc1nn(CC(=O)Nc2ccncn2)c(=O)c2cc(C3CC3)nn12 [Final Cpd 48] | 6.05 | < 5.00 | 
CNc1cc2c(=O)n(CC(=O)Nc3ccncn3)nc(C(C)C)n2n1 [Final Cpd 18, 2-[7-isopropyl-2-(methylamino)-4-oxo-pyrazolo[1,5-d] [1,2,4]triazin-5-yl]—N-pyrimidin-4-yl-acetamide] | 6.80 | < 5.00 | 
CCc1nn(CC(=O)Nc2ccncc2)c(=O)c2ccnn12 [Final Cpd 79] | < 5.00 | < 5.00 | 
CC(C)c1nn(CC(=O)Nc2ccc3cnnn3c2)c(=O)c2cc(C3CC3)nn12 [Final Cpd 128] | 5.59 | < 5.00 | 
CC(C)c1nn(CC(=O)Nc2ccc3nc(C(F)F)cn3c2)c(=O)c2cc(C3CC3)nn12 [Final Cpd 105] | 6.74 | < 5.00 | 
CCc1cc2c(=O)n(CC(=O)Nc3ccc4nncn4c3)nc(C(C)C)n2n1 [Final Cpd 146] | 6.68 | < 5.00 | 

Compound | pIC50 (NLRP3 inflammasome; [1]) | pEC50 (TNF) | pIC50 (NLRP3 inflammasome; Homo sapiens, 6 h)
CC(C)c1cc2c(=O)n(CC(=O)Nc3ccnnc3)nc(N(C)C)n2n1 [Final Cpd 149] | 6.11 | < 5.00 | 
CCCc1cc2c(=O)n(CC(=O)Nc3ccncn3)nc(CC)n2n1 [Final Cpd 15] | 5.62 | < 5.00 | 
CCN1CC[C@@H](O)[C@@H](NC(=O)Cn2nc(C(C)C)n3nc(C4CC4)cc3c2=O)C1 [Final Cpd 190, 2-(2-cyclopropyl-7-isopropyl-4-oxopyrazolo[1,5-d][1,2,4]triazin-5(4H)-yl)-N-((3S,4R)-1-ethyl-4-hydroxypiperidin-3-yl)acetamide] | 7.27 | < 5.00 | 
CC(C)c1nn(CC(=O)Nc2ccncn2)c(=O)c2cc(N3CCC3)nn12 [Final Cpd 21] | 5.56 | < 5.00 | 
CCNc1cc2c(=O)n(CC(=O)Nc3ccc(=O)n(C)n3)nc(C(C)C)n2n1 [Final Cpd 74] | 6.66 | < 5.00 | 
CCNc1cc2c(=O)n(CC(=O)Nc3ccncn3)nc(C(C)C)n2n1 [Final Cpd 72] | 7.27 | < 5.00 | 
CC(C)c1nn(CC(=O)Nc2ccncn2)c(=O)c2cc(C(C)O)nn12 (stereo not drawn) [Final Cpd 185, 2-(2-(1-hydroxyethyl)-7-sopropyl-4-oxopyrazolo[1,5-d][1,2,4]triazin-5(4H)-yl)-N-(pyrimidin-4-yl)acetamide] | 5.39 | < 5.00 | 
CC(C)c1nn(CC(=O)Nc2ccc3nncn3n2)c(=O)c2cc(C(C)(F)F)nn12 [Final Cpd 176] | 7.09 | < 5.00 | 
CCc1cc2c(=O)n(CC(=O)Nc3ccncn3)nc(CC)n2n1 [Final Cpd 13] | 5.77 | < 5.00 | 
Cc1nn(CC(=O)N[C@@H]2COC[C@H]2N2CCCCC2)c(=O)c2cc(C3CC3)nn12 [Final Cpd 54] |  | < 5.00 | < 5.00
CC(C)c1nn(CC(=O)N[C@@H]2CCCN(C3CCC3)C2)c(=O)c2cc(C3CC3)nn12 [Final Cpd 9] | > 6.92 | < 5.00 | 
CC(C)c1nn(CC(=O)Nc2ccc3nc(C#N)cn3c2)c(=O)c2cc(C3CC3)nn12 [Final Cpd 99] | 6.31 | < 5.00 | 
CCc1cc2c(=O)n(CC(=O)Nc3ccnnc3)nc(N(C)C)n2n1 [Final Cpd 152] | 6.07 | < 5.00 | 
CC(C)c1nn(CC(=O)Nc2cncnc2)c(=O)c2cc(C3CC3)nn12 [Final Cpd 115] | 5.76 | < 5.00 | 
Cc1cn2nc(NC(=O)Cn3nc(C(C)C)n4nc(C5CC5)cc4c3=O)ccc2n1 [Final Cpd 114] | 6.46 | < 5.00 | 
CCNc1cc2c(=O)n(CC(=O)Nc3ccc4nncn4c3)nc(C(C)C)n2n1 [Final Cpd 75] | 7.62 | 5.15 | 
CC(C)c1nn(CC(=O)N[C@H]2C[C@@](C)(O)C2)c(=O)c2cc(CC(F)(F)F)nn12 [Final Cpd 160] | < 5.00 | < 5.00 | 
CC(C)c1nn(CC(=O)Nc2ccc(=O)n(C)c2)c(=O)c2cc(C3CC3)nn12 [Final Cpd 28] | 6.42 | < 5.00 | 
Cc1ccc(NC(=O)Cn2nc(C(C)C)n3nc(C4CC4)cc3c2=O)cn1 [Final Cpd 122] | 6.09 | < 5.00 | 
Cc1c(NC(=O)Cn2nc(C(C)C)n3nc(C4CC4)cc3c2=O)ccnc1Cl [Final Cpd 124] | 6.21 | < 5.00 | 
CCc1cc2c(=O)n(CC(=O)N[C@H]3C[C@@](C)(O)C3)nc(C(C)C)n2n1 [Final Cpd 140] | 6.68 | < 5.00 | 
CN(C)c1nn(CC(=O)Nc2ccc3nncn3c2)c(=O)c2cc(C3CC3)nn12 [Final Cpd 37] | 6.25 | < 5.00 | 
